From patent publication US20160090351A1, “INHIBITORS OF DEUBIQUITINATING PROTEASES” (BRANDEIS UNIVERSITY, priority 2013, published 2016)

Assays:
Type in all cases: cell-based, human
K562 cells = assay: accumulation of K48- and K63-linked Ub in K562 cells; conditions: for accumulation of K48-linked HMW-Ub: 50 μM, 2 h
Protocol: FIG. 34 depicts data showing that diphenylcarbonates cause the accumulation of HMW-Ub and reduce the levels of Bcr-Abl in K562 cells. A. K562 cells were treated with diphenyl carbonates (50 μM) for 2 h and then assayed for the accumulation of K48-linked Ub. B. As in A, but Bcr-Abl was measured by immunoblotting with anti-Abl antibodies. C. K562 cells were treated with C17 (50 μM) in the presence and absence of bortezomib (6 μM) for 4 hours and Bcr-Abl was measured by immunblotting with anti-Abl antibodies. D. Quantitation of blot in C. Significance: DMSO relative to C17 and bortezomib p=0.002; DMSO relative to C17, p=0.03. E. K562 cells were treated with C15 for 4 hours then analyzed for SMAD4 monoubiquitination by western blot. F. Quantitation of blots in A. (N=3). See also FIG. 40.
FIG. 40 depicts data showing that diphenyl carbonates induce the degradation of Bcr-Abl kinase. A. K562 cells were treated with C17 for 24 h (1 dose) then analyzed for Bcr-Abl expression by western blot with anti-Abl antibody. B. Quantitation of blots in A normalized to actin. C. K562 cells were treated with C17 for 24 h then the amount of cells in G1 and apoptosis were recorded (N=3). D. K562 were treated with C15 for 4 h then analyzed for Bcr-Abl expression using western blot. E. Quantitation of Bcr-Abl from D normalized to tubulin (N=4). F. Same K562 lysates were separately analyzed for K63-linked ubiquitin. G. Quantitation of blots in F (N=4). Differences between all bars is significant p<0.01). H. K562 cells were treated with C15 for 24 h after which time cells were fixed in ethanol, treated with propodium iodide/RNAse then analyzed by FACS. Viability was calculated using forward and side scatter. I. Same experiment as H but red fluorescence was measured to determine DNA content
Transfected cells were harvested 1.5 days post transfection. […] Typically clarified lysate was analyzed.

Bcr-Abl kinase = assay: Bcr-Abl levels in K562 cells by immunoblotting; conditions: for levels of Bcr-Abl: 50 μM, 2 h
[1] = test system: ubiquitin-proteasome system; assay: GFP-G76V-Ub assay in HEK 293T cells; conditions: diphenyl carbonates 100 μM, bortezomib 20 μM, G5 2 μM
Protocol: FIG. 32 depicts data showing that diphenyl carbonates inhibit DUBs in HEK 293T cells. A. Viability of HEK 293T cells assessed by the propidium iodide exclusion method: diphenyl carbonate (100 μM), bortezomib (V, 20 μM) and G5 (2 μM). N≧3, mean+/−s.d. B. HEK 293T cells were treated with the stated compounds (50 μM) for 2 h and then assayed for the accumulation of K48-linked Ub species. C. As in A, but K63-linked Ub was assayed. D. HEK 293T cells were treated with C14, C15, C17, C18 (100 μM) or DMSO for 2 hours, then harvested, lysed and treated with HA-Ub-VS. After 30 min, lysates were analyzed by SDS-PAGE and probed for HA, tubulin and actin. An intervening lane was removed for clarity. E. HEK 293T cells expressing Ub-G76V-GFP were treated with diphenyl carbonates (100 μM), bortezomib (20 μM) and G5 (2 μM). […] N>3, Mean+/−s.d. See also FIG. 39.
FACS was carried out on a […] FACS-Calibur. For HEK 293T and K562, cells were resuspended by repeated pipetting/agitation of the incubation media, followed by dilution into PBS. For Cos-1, MCF-7, and CHO cells, media was removed and trypsin was added. Harvested cells were placed in FACS buffer (0.5% FBS in PBS with 3 μg/mL propidium iodide) 30 s prior to analysis. All data were analyzed using FlowJo V10, from TreeStar (Ashland, Oreg.). Approximately 2500 cells were sorted per replicate. Cells were sorted by propidium iodide dye exclusion to give a “viable population”. GFP positive cells within this group were identified relative to untransfected controls. Then the geometric mean of the whole GFP positive population within the viable population was calculated. Typical transfection efficiencies for G76V ubiquitin were 60-70% for both Cos-1 and HEK 293T and 25-40% for CHO cells, based on GFP positive cells.
The activity of the diphenylcarbonates in the GFP-G76V-Ub assay, which monitors flux through the ubiquitin-proteasome system, was also investigated. The G76V mutation creates an unstable Ub fusion protein that is degraded in a proteasome dependent process. GFP fluorescence increased when HEK 293T cells expressing GFP-G76V-Ub were treated with the proteasome inhibitor bortezomib and decreased upon treatment with G5 (FIG. 39). This decrease has been attributed to increased flux through the ubiquitin-proteasome system triggered by the accumulation of HMW-Ub. […] Perhaps the inability of the diphenylcarbonates to inhibit UCH-L1/3 accounts for the stability of GFP-G76V-Ub. This selectivity might also explain the low cytoxicity of these compounds relative to G5.

Structure (SMILES) | accumulation of K48-linked HMW-Ub (K562 cells) | levels of Bcr-Abl (Bcr-Abl kinase) | GFP fluorescence [1] | accumulation of K63-linked ubiquitin (K562 cells; C15 4 h) | Bcr-Abl, dose response (Bcr-Abl kinase; C15 4 h)
NCc1ccc(OC(=O)Oc2ccc(Cl)cc2)cc1 [Compound C14, 4-(aminomethyl)phenyl(4-chlorophenol)carbonate] | caused the accumulation of K48-linked HMW-Ub in K562 cells | caused a decrease in the levels of Bcr-Abl | no change in fluorescence was observed |  | 
NCc1ccc(OC(=O)Oc2ccc(Br)cc2)cc1 [Compound C15, 4-(aminomethyl)phenyl(4-bromophenyl)carbonate] | caused the accumulation of K48-linked HMW-Ub in K562 cells | caused a decrease in the levels of Bcr-Abl | no change in fluorescence was observed | caused the accumulation of K63-linked ubiquitin | dose dependent decrease in Bcr-Abl
NCc1ccc(OC(=O)Oc2ccc3ccccc3c2)cc1 [Compound C17] | caused the accumulation of K48-linked HMW-Ub in K562 cells | caused a decrease in the levels of Bcr-Abl | no change in fluorescence was observed |  | 
NCc1ccc(OC(=O)Oc2cccc3ccccc23)cc1 [Compound C18] | caused the accumulation of K48-linked HMW-Ub in K562 cells | caused a decrease in the levels of Bcr-Abl | no change in fluorescence was observed |  | 
O=C1/C(=C/c2ccc([N+](=O)[O-])cc2)CS(=O)(=O)C/C1=C\c1ccc([N+](=O)[O-])cc1 [Compound G5, reference compound] |  |  | decreased |  | 
